One data set deals with T1, human IL-23R (Homo sapiens, UniProt Q5VWK5).
T1 construct: Nanoluc luciferase (Nluc); secretion signal encoded by the plasmid (not specified); expressed in transfected cells; crude membranes used in the assay
T1 sequence (Q5VWK5 22-629): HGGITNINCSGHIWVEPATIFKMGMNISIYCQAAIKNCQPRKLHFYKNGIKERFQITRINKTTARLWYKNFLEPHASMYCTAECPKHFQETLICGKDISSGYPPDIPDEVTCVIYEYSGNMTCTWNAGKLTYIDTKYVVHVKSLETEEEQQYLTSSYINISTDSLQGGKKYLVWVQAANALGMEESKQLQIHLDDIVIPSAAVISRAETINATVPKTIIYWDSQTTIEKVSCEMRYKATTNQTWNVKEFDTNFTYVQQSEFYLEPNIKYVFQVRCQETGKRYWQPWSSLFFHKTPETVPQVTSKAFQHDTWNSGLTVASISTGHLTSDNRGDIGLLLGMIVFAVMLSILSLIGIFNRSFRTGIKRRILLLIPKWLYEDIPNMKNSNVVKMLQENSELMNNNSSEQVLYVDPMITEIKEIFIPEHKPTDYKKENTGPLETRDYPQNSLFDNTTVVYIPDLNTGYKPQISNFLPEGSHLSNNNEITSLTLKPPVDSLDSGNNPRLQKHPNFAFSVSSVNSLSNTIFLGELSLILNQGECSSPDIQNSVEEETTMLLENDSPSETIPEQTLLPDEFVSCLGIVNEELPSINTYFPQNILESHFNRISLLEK
The experiment in a line: Binding assay: displacement of fluorophore (TAMRA)-labelled reference compound from human IL-23R (BRET, Nluc-IL23R fusion protein membranes). Particulars: for Emax: read-out: % displacement (hIL-23R binding). (In general: Bioluminescence resonance energy transfer reports proximity on the nanometre scale.)

Data set [1] can be described thus: Peptide stability in simulated intestinal fluid (SIF). As to conditions: pig, simulated intestinal fluid, SIF, pH 6.8, pancreatin, 37° C., 10 μM; for remaining at 4 h, 10 µM: read-out: SIF (% remaining 4 h). The data set is classed as in vitro ADME. On the procedure: (§1) SGF and SIF were prepared based on the United States Pharmacopeia specifications (Test Solutions, United States Pharmacopeia 35, NF 30, 2012). SGF was prepared by dissolving sodium chloride (0.2 g) in 50 mL of water. A volume of 0.7 mL of 10 M HCl was added to adjust the pH of the solution to 1.2 and the volume made up to 100 mL with water. 64 mg porcine pepsin (P7125, Sigma Aldrich) was gently dissolved into 20 mL preheated (37° C.) solution (3.2 g/L) immediately prior to the incubation. SIF was prepared by dissolving monobasic potassium phosphate (0.68 g) in 50 mL of water and adjusting the pH to 6.8 with 1 M NaOH. The volume was subsequently made up to 100 mL with water. 200 mg porcine pancreatin (P1625, Sigma Aldrich) was gently dissolved into 20 mL preheated (37° C.) solution (10 g/L) immediately prior to the incubation.
(§2) To initiate the incubations, 20 μL of peptide stock solution in 50% v/v isopropanol was deposited at the bottom of a well plate and 580 μL matrix solution was added to give a final substrate concentration of 10 μM. The incubation was performed at 37° C. with gentle shaking. 70 μL aliquots were removed at 0, 1 and 4 hours and quenched into 210 μL ice-cold precipitant solution (95% v/v acetonitrile with 0.1% v/v formic acid). After the last timepoint, the sampling plate was mixed for 10 min on a shaking table and centrifuged 10 min at 2200 g. 70 μL resulting supernatant was diluted with 150 μL water, mixed and centrifugated before analysis by liquid chromatography high resolution mass spectrometry. The zero sample was reinjected after the 4-hour sample to confirm that no drift in instrument sensitivity had occurred during the run. Percent remaining at each timepoint was calculated relative to timepoint zero based on absolute peak areas.
Compounds with a SIF stability (after 4 h) above 70% are considered highly SIF stable. Compounds with a SIF stability (after 4 h) between 30-70% (including 30% and 70%) are considered moderately SIF stable. Compounds with a SIF stability (after 4 h) below 30% are considered SIF unstable. SIF stability values above 100% are due to assay uncertainty and indicate the compound has not degraded.

Data set [2] can be described thus: Peptide stability in simulated gastric fluid (SGF). The data set is classed as in vitro ADME. As to conditions: pig, pH 1.2, pepsin, 37° C. On the procedure:
as §1, §2
Compounds with a SGF stability (after 4 h) above 70% are considered highly SGF stable. Compounds with a SGF stability (after 4 h) between 30-70% (including 30% and 70%) are considered moderately SGF stable. Compounds with a SGF stability (after 4 h) below 30% are considered SGF unstable. SGF stability values above 100% are due to assay uncertainty and indicate the compound has not degraded.

Data set [3] relates to IL-23 mediated STAT3 signalling (DB cells). Briefly: Functional inhibition of IL-23 mediated STAT3 signalling (phospho-STAT3 Tyr705) in DB cells. The data set is classed as cell-based, human. Particulars: for IC50: Table 3-2, EC80 of hIL-23, read-out: hIL-23 (pSTAT3) antagonist IC50; for hIL-23 (pSTAT3) antagonist % inhibition: Table 3-2, maximal inhibitory response, EC80 of hIL-23. A digest of the protocol: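 Phospho-STAT3 in lysed DB cells quantified by MSD kit after 90 min exposure to EC80 human IL-23, following 15 min compound pretreatment (37° C, 5% CO2). IC50 and maximal inhibition derived from curves normalized between IL-23-only and buffer-only controls.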

*1 amine or outer side, *2 acyl side, *3 side chain or, on linkers, in order; H or OH if unused. Where a SMILES comes first, the peptide text is derived from it. Bridges are numbered along the chain shown (N, C = ends). [ ]: non-standard residue; d: D form. 2Nal = N[C@@H](Cc1ccc2ccccc2c1)C(=O)O; AEF = NCCOc1ccc(C[C@H](N)C(=O)O)cc1; X1 = O=C(Cc1ccc(CN[*:1])cc1)[*:2]; 3Pal = N[C@@H](Cc1cccnc1)C(=O)O; Cit = NC(=O)NCCC[C@H](N)C(=O)O; αMeL = CC(C)C[C@](C)(N)C(=O)O; Dab = NCC[C@H](N)C(=O)O

One may read the IC50 as the concentration needed to halve the response being measured.

Turning to `CNC(=O)[C@H](Cc1cccnc1)NC(=O)[C@H](CO)NC(=O)[C@@H]1CCC(=O)NCc2ccc(cc2)CC(=O)N[C@@H](C)C(=O)N[C@H]2CCC(=O)NCC[C@H](NC(=O)[C@H](CCC(N)=O)NC(=O)[C@H](Cc3c[nH]c4ccccc34)NC2=O)C(=O)N[C@@H](Cc2ccc(OCCN)cc2)C(=O)N[C@@H](Cc2ccc3ccccc3c2)C(=O)N[C@@](C)(CC(C)C)C(=O)N1` [Compound 40, [4-Aminomethyl-phenylacetyl](1c)*AE(2c)WQ[Dab](2c)[Y(2-aminoethoxy)][2-Nal][2-Me-Leu]E(1c)S[3-(3-Pyridyl)-Ala]-[NHMe]] ([X1]AEWQ[Dab][AEF][2Nal][αMeL]ES[3Pal]-NHMe; lactam 3-6, N-10), the Emax on human IL-23R came out at 100%. Besides, the share remaining at 1 h, 10 µM in data set [1] is 93%. Besides, in data set [2], the share remaining at 4 h, 10 µM was 89%.

Take `CNC(=O)[C@H](Cc1cccnc1)NC(=O)C1(NC(=O)[C@@H]2CCC(=O)NCc3ccc(cc3)CC(=O)N[C@@H](CO)C(=O)N[C@H]3CCC(=O)NCC[C@H](NC(=O)[C@H](CCC(N)=O)NC(=O)[C@H](Cc4c[nH]c5ccccc45)NC3=O)C(=O)N[C@@H](Cc3ccc(OCCN)cc3)C(=O)N[C@@H](Cc3ccc4ccccc4c3)C(=O)N[C@@](C)(CC(C)C)C(=O)N2)CCOCC1` [Compound 35, [4-Aminomethyl-phenylacetyl](1c)*SE(2c)WQ[Dab](2c)[Y(2-aminoethoxy)][2-Nal][2-Me-Leu]E(1c)[THP][3-(3-Pyridyl)-Ala]-[NHMe]]: at human IL-23R, the IC50 was 0.039 nM and the Emax was 101%. For the same compound, the fraction remaining at 4 h, 10 µM in data set [1] is 96%. Moreover, the amount remaining at 1 h, 10 µM in data set [2] is 101%.

In the case of `CNC(=O)[C@H](Cc1cccnc1)NC(=O)[C@H](CCN)NC(=O)[C@@H]1CCC(=O)NCc2ccc(cc2)CC(=O)N[C@@H](Cc2ccccc2)C(=O)N[C@H]2CCC(=O)NCC[C@H](NC(=O)[C@H](CCC(N)=O)NC(=O)[C@H](Cc3c[nH]c4ccccc34)NC2=O)C(=O)N[C@@H](Cc2ccc(OCCN)cc2)C(=O)N[C@@H](Cc2ccc3ccccc3c2)C(=O)N[C@@](C)(CC(C)C)C(=O)N1` [Compound 21, [4-Aminomethyl-phenylacetyl](1c)*FE(2c)WQ[Dab](2c)[Y(2-aminoethoxy)][2-Nal][2-Me-Leu]E(1c)[Dab][3-(3-Pyridyl)-Ala]-[NHMe]] ([X1]FEWQ[Dab][AEF][2Nal][αMeL]E[Dab][3Pal]-NHMe; lactam 3-6, N-10), in data set [3], the IC50 turned out to be 0.063 nM and the “hIL-23 (pSTAT3) antagonist % inhibition” value is listed as 102%. In addition, the amount remaining at 4 h, 10 µM in data set [1] is 57%. Moreover, in data set [2], the fraction remaining at 1 h, 10 µM is 101% and the amount remaining at 4 h, 10 µM is 101%.

Regarding `CNC(=O)[C@H](Cc1cccnc1)NC(=O)[C@H](CCN)NC(=O)[C@@H]1CCC(=O)NCc2ccc(cc2)CC(=O)N[C@@H](CO)C(=O)N[C@H]2CCC(=O)NCC[C@H](NC(=O)[C@H](CCCNC(N)=O)NC(=O)[C@H](Cc3c[nH]c4ccccc34)NC2=O)C(=O)N[C@@H](Cc2ccc(OCCN)cc2)C(=O)N[C@@H](Cc2ccc3ccccc3c2)C(=O)N[C@@](C)(CC(C)C)C(=O)N1` [Compound 26, [4-Aminomethyl-phenylacetyl](1c)*SE(2c)W[Cit][Dab](2c)[Y(2-aminoethoxy)][2-Nal][2-Me-Leu]E(1c)[Dab][3-(3-Pyridyl)-Ala]-[NHMe]] ([X1]SEW[Cit][Dab][AEF][2Nal][αMeL]E[Dab][3Pal]-NHMe; lactam 3-6, N-10), in data set [3], the IC50 was found to be 0.042 nM and the “hIL-23 (pSTAT3) antagonist % inhibition” value amounted to 100%. The fraction remaining at 1 h, 10 µM in data set [1] is 89%. In data set [2], the amount remaining at 1 h, 10 µM was 105% and the amount remaining at 4 h, 10 µM is 99%.

Source of the values: US20260327264A1, “PEPTIDE INHIBITORS OF INTERLEUKIN-23 RECEPTOR” (Zealand Pharma A/S, priority 2023, published 2026).
